Laboratory results from patent publication US8247211B2, “Glycopeptide antibiotics” (American Cyanamid Company, priority 2001, dated 2012).
≈ marks a conversion by molar mass, not a printed value.

Columns and labels:
Experiment in all cases: In vitro antibacterial evaluation: minimum inhibitory concentration (MIC), broth dilution method
Type in all cases: cell-based
[1] = tested on: Streptococcus sp.
How it was run: (§1)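 Following NCCLS approved standard M7-A2, compounds are serially diluted from 64 to 0.06 μg/mL in Muller-Hinton II […] and inoculated at 5×10^5 CFU/mL; the MIC is the minimum concentration at which growth is inhibited.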

[2] = tested on: Staphylococcus sp.
How it was run: as §1

[3] = tested on: Enterococcus sp.
How it was run: as §1

[4] = tested on: Escherichia coli
How it was run: as §1

[5] = broth dilution, 5×10^5 CFU/mL, 18 hours at 35° C.
[6] = broth dilution, inoculum 5×10^5 CFU/mL, 18 hours at 35° C.

SMILES: COc1cccc(C2OC3C(OC4C(CO)OC(Oc5ccc(CC6NC(=O)C(C(C)c7ccccc7)NC(=O)CNC(=O)C(CO)NC(=O)C(C(O)C7CNC(=N)N7C7OC(CO)C(O)C(O)C7O)NC(=O)C(C(O)C7CNC(=N)N7)NC6=O)cc5)C(O)C4O)OC(CO)C(O)C3O2)c1 (single isomer, unassigned) [Example 137a, Cyclo[glycyl-β-methylphenylalanyl-O-[4-O-[2,3-O-(3-methoxybenzylidene)hexopyranosyl]-hexopyranosyl]tyrosyl-3-(2-iminoimidazolidin-4-yl)seryl-3-(3-hexopyranosyl-2-iminoimidazolidin-4-yl)serylseryl]]
- MIC Streptococcus pneumoniae (ATCC 6301) ([1]; strain ATCC 6301): 8 µg/mL (≈ 5.66 µM)
- MIC Streptococcus pneumoniae (GC 1894) ([1]; strain GC 1894): 4 µg/mL (≈ 2.83 µM)
- MIC Streptococcus pyogenes (GC 4563) ([1]; strain GC 4563): 16 µg/mL (≈ 11.3 µM)
- MIC Streptococcus agalactiae (GC 4564) ([1]; strain GC 4564): 16 µg/mL (≈ 11.3 µM)
- MIC Streptococcus pneumoniae (GC 4565) ([1]; strain GC 4565): 16 µg/mL (≈ 11.3 µM)
- MIC Coagulase Negative Staphylococcus (GC 4547) [2, 5]: 16 µg/mL (≈ 11.3 µM)
- MIC Coagulase Negative Staphylococcus (GC 4548) [2, 5]: 8 µg/mL (≈ 5.66 µM)
- MIC Coagulase Negative Staphylococcus (GC 4549) [2, 5]: 8 µg/mL (≈ 5.66 µM)
- MIC Coagulase Negative Staphylococcus (GC 4551) [2, 5]: 16 µg/mL (≈ 11.3 µM)
- MIC Coagulase Negative Staphylococcus (GC 6257) [2, 5]: 8 µg/mL (≈ 5.66 µM)
- MIC Staphylococcus aureus (ATCC 29213) [2, 5]: 32 µg/mL (≈ 22.6 µM)
- MIC Staphylococcus aureus (GC 1131) [2, 5]: 32 µg/mL (≈ 22.6 µM)
- MIC Staphylococcus aureus (GC 3051) [2, 5]: 32 µg/mL (≈ 22.6 µM)
- MIC Staphylococcus aureus (GC 3053) [2, 5]: 32 µg/mL (≈ 22.6 µM)
- MIC Staphylococcus aureus (GC 4541) [2, 5]: 16 µg/mL (≈ 11.3 µM)
- MIC Staphylococcus aureus (GC 4542) [2, 5]: 32 µg/mL (≈ 22.6 µM)
- MIC Staphylococcus aureus (GC 4544) [2, 5]: 32 µg/mL (≈ 22.6 µM)
- MIC Staphylococcus aureus (GC 4545) [2, 5]: 32 µg/mL (≈ 22.6 µM)
- MIC Staphylococcus aureus-SMITH (GC 4543) [2, 5]: 16 µg/mL (≈ 11.3 µM)
- MIC Staphylococcus haemolyticus (GC 4546) [2, 5]: 16 µg/mL (≈ 11.3 µM)
- MIC Staphylococcus aureus (ATCC 29213) ([2]; strain ATCC 29213, broth dilution, 18 hours at 35° C.): 32 µg/mL (≈ 22.6 µM)
- MIC Staphylococcus aureus (GC 1131) ([2]; strain GC 1131, broth dilution, 18 hours at 35° C.): 32 µg/mL (≈ 22.6 µM)
- MIC Staphylococcus aureus (GC 3051) ([2]; strain GC 3051, broth dilution, 18 hours at 35° C.): 32 µg/mL (≈ 22.6 µM)
- MIC Staphylococcus aureus (GC 3053) ([2]; strain GC 3053, broth dilution, 18 hours at 35° C.): 32 µg/mL (≈ 22.6 µM)
- MIC Staphylococcus aureus (GC 4541) ([2]; strain GC 4541, broth dilution, 18 hours at 35° C.): 16 µg/mL (≈ 11.3 µM)
- MIC Staphylococcus aureus (GC 4542) ([2]; strain GC 4542, broth dilution, 18 hours at 35° C.): 32 µg/mL (≈ 22.6 µM)
- MIC Staphylococcus aureus-SMITH (GC 4543) ([2]; strain GC 4543, broth dilution, 18 hours at 35° C.): 16 µg/mL (≈ 11.3 µM)
- MIC Staphylococcus aureus (GC 4544) ([2]; strain GC 4544, broth dilution, 18 hours at 35° C.): 32 µg/mL (≈ 22.6 µM)
- MIC Staphylococcus aureus (GC 4545) ([2]; strain GC 4545, broth dilution, 18 hours at 35° C.): 32 µg/mL (≈ 22.6 µM)
- MIC Staphylococcus haemolyticus (GC 4546) ([2]; strain GC 4546, broth dilution, 18 hours at 35° C.): 16 µg/mL (≈ 11.3 µM)
- MIC Coagulase Negative Staphylococcus (GC 4547) ([2]; strain GC 4547, broth dilution, 18 hours at 35° C.): 16 µg/mL (≈ 11.3 µM)
- MIC Coagulase Negative Staphylococcus (GC 4548) ([2]; strain GC 4548, broth dilution, 18 hours at 35° C.): 8 µg/mL (≈ 5.66 µM)
- MIC Coagulase Negative Staphylococcus (GC 4549) ([2]; strain GC 4549, broth dilution, 18 hours at 35° C.): 8 µg/mL (≈ 5.66 µM)
- MIC Coagulase Negative Staphylococcus (GC 4551) ([2]; strain GC 4551, broth dilution, 18 hours at 35° C.): 16 µg/mL (≈ 11.3 µM)
- MIC Coagulase Negative Staphylococcus (GC 6257) ([2]; strain GC 6257, broth dilution, 18 hours at 35° C.): 8 µg/mL (≈ 5.66 µM)
- MIC Enterococcus faecalis (ATCC 29212) ([3]; strain ATCC 29212): >64 µg/mL
- MIC Enterococcus faecalis (GC 2242) ([3]; strain GC 2242): >64 µg/mL
- MIC Enterococcus faecium (GC 2243) ([3]; strain GC 2243): >64 µg/mL
- MIC Enterococcus faecalis (GC 2691) ([3]; strain GC 2691): >64 µg/mL
- MIC Enterococcus faecalis (GC 3059) ([3]; strain GC 3059): >64 µg/mL
- MIC Enterococcus faecalis (GC 4552) ([3]; strain GC 4552): >64 µg/mL
- MIC Enterococcus faecalis (GC 4553) ([3]; strain GC 4553): >64 µg/mL
- MIC Enterococcus faecalis (GC 4554) ([3]; strain GC 4554): >64 µg/mL
- MIC Enterococcus faecium (GC 4556) ([3]; strain GC 4556): >64 µg/mL
- MIC Enterococcus faecium (GC 4557) ([3]; strain GC 4557): 16 µg/mL (≈ 11.3 µM)
- MIC Enterococcus avium (GC 4558) ([3]; strain GC 4558): 64 µg/mL (≈ 45.3 µM)
- MIC Enterococcus faecalis (GC 6189) ([3]; strain GC 6189): >64 µg/mL
- MIC Escherichia coli (ATCC 25922) ([4]; strain ATCC 25922): >64 µg/mL
- MIC Escherichia coli (GC 4559) ([4]; strain GC 4559): >64 µg/mL
- MIC Escherichi coli (GC 4560) ([4]; strain GC 4560): 8 µg/mL (≈ 5.66 µM)

SMILES: CC(C)=CCN1CC(C(O)C2NC(=O)C(C(O)C3CNC(=N)N3)NC(=O)C(Cc3ccc(OC4OC(CO)C(OC5OC6COC7(OC6C(O)C5O)C5CC6CC(C5)CC7C6)C(O)C4O)cc3)NC(=O)C(C(C)c3ccccc3)NC(=O)CNC(=O)C(CO)NC2=O)N(C2OC(CO)C(O)C(O)C2O)C1=N (stereo not drawn) [Example 225, Cyclo[glycyl-β-methylphenylalanyl-O-[4-O-[4,6-O-(2-adamantylidene)hexopyranosyl]hexopyranosyl]tyrosyl-3-(2-iminoimidazolidin-4-yl)seryl-3,3-hexopyranosyl-2-imino-1-(3-methylbut-2-en-1-iminoimidazolidin-4-yl]serylseryl]]
- MIC Streptococcus agalactiae (GC 4564) ([1]; Streptococcus agalactiae (GC 4564), 18 hours at 35° C.): 0.5 µg/mL (≈ 0.334 µM)
- MIC Streptococcus pneumoniae (ATCC 6301) ([1]; Streptococcus pneumoniae (ATCC 6301), 18 hours at 35° C.): 0.5 µg/mL (≈ 0.334 µM)
- MIC Streptococcus pneumoniae (GC 1894) ([1]; Streptococcus pneumoniae (GC 1894), 18 hours at 35° C.): <0.12 µg/mL
- MIC Streptococcus pneumoniae (GC 4565) ([1]; Streptococcus pneumoniae (GC 4565), 18 hours at 35° C.): 1 µg/mL (≈ 0.669 µM)
- MIC Streptococcus pyogenes (GC 4563) ([1]; Streptococcus pyogenes (GC 4563), 18 hours at 35° C.): 0.5 µg/mL (≈ 0.334 µM)
- MIC Streptococcus agalactiae (GC 4564) [1, 6]: 0.5 µg/mL (≈ 0.334 µM)
- MIC Streptococcus pneumoniae (ATCC 6301) [1, 6]: 0.5 µg/mL (≈ 0.334 µM)
- MIC Streptococcus pneumoniae (GC 1894) [1, 6]: <0.12 µg/mL
- MIC Streptococcus pneumoniae (GC 4565) [1, 6]: 1 µg/mL (≈ 0.669 µM)
- MIC Streptococcus pyogenes (GC 4563) [1, 6]: 0.5 µg/mL (≈ 0.334 µM)
- MIC Staphylococcus aureus (ATCC 29213) ([2]; strain ATCC 29213): 4 µg/mL (≈ 2.67 µM)
- MIC Staphylococcus aureus (GC 1131) ([2]; strain GC 1131): 8 µg/mL (≈ 5.35 µM)
- MIC Staphylococcus aureus (GC 3051) ([2]; strain GC 3051): 4 µg/mL (≈ 2.67 µM)
- MIC Staphylococcus aureus (GC 3053) ([2]; strain GC 3053): 8 µg/mL (≈ 5.35 µM)
- MIC Staphylococcus aureus (GC 4541) ([2]; strain GC 4541): 4 µg/mL (≈ 2.67 µM)
- MIC Staphylococcus aureus (GC 4542) ([2]; strain GC 4542): 8 µg/mL (≈ 5.35 µM)
- MIC Staphylococcus aureus-SMITH (GC 4543) ([2]; strain GC 4543): 4 µg/mL (≈ 2.67 µM)
- MIC Staphylococcus aureus (GC 4544) ([2]; strain GC 4544): 8 µg/mL (≈ 5.35 µM)
- MIC Staphylococcus aureus (GC 4545) ([2]; strain GC 4545): 4 µg/mL (≈ 2.67 µM)
- MIC Staphylococcus haemolyticus (GC 4546) ([2]; strain GC 4546): 4 µg/mL (≈ 2.67 µM)
- MIC Coagulase Negative Staphylococcus (GC 4547) ([2]; strain GC 4547): 4 µg/mL (≈ 2.67 µM)
- MIC Coagulase Negative Staphylococcus (GC 4548) ([2]; strain GC 4548): 2 µg/mL (≈ 1.34 µM)
- MIC Coagulase Negative Staphylococcus (GC 4549) ([2]; strain GC 4549): 2 µg/mL (≈ 1.34 µM)
- MIC Coagulase Negative Staphylococcus (GC 4551) ([2]; strain GC 4551): 4 µg/mL (≈ 2.67 µM)
- MIC Enterococcus avium (GC 4558) ([3]; Enterococcus avium (GC 4558), 18 hours at 35° C.): 4 µg/mL (≈ 2.67 µM)
- MIC Enterococcus faecalis (ATCC 29212) ([3]; Enterococcus faecalis (ATCC 29212), 18 hours at 35° C.): 8 µg/mL (≈ 5.35 µM)
- MIC Enterococcus faecalis (GC 2242) ([3]; Enterococcus faecalis (GC 2242), 18 hours at 35° C.): 8 µg/mL (≈ 5.35 µM)
- MIC Enterococcus faecalis (GC 2691) ([3]; Enterococcus faecalis (GC 2691), 18 hours at 35° C.): 16 µg/mL (≈ 10.7 µM)
- MIC Enterococcus faecalis (GC 3059) ([3]; Enterococcus faecalis (GC 3059), 18 hours at 35° C.): 16 µg/mL (≈ 10.7 µM)
- MIC Enterococcus faecalis (GC 4552) ([3]; Enterococcus faecalis (GC 4552), 18 hours at 35° C.): 8 µg/mL (≈ 5.35 µM)
- MIC Enterococcus faecalis (GC 4553) ([3]; Enterococcus faecalis (GC 4553), 18 hours at 35° C.): 4 µg/mL (≈ 2.67 µM)
- MIC Enterococcus faecalis (GC 4554) ([3]; Enterococcus faecalis (GC 4554), 18 hours at 35° C.): 16 µg/mL (≈ 10.7 µM)
- MIC Enterococcus faecalis (GC 6189) ([3]; Enterococcus faecalis (GC 6189), 18 hours at 35° C.): 16 µg/mL (≈ 10.7 µM)
- MIC Enterococcus faecium (GC 2243) ([3]; Enterococcus faecium (GC 2243), 18 hours at 35° C.): 4 µg/mL (≈ 2.67 µM)
- MIC Enterococcus faecium (GC 4556) ([3]; Enterococcus faecium (GC 4556), 18 hours at 35° C.): 8 µg/mL (≈ 5.35 µM)
- MIC Enterococcus faecium (GC 4557) ([3]; Enterococcus faecium (GC 4557), 18 hours at 35° C.): 1 µg/mL (≈ 0.669 µM)
- MIC Enterococcus avium (GC 4558) [3, 6]: 4 µg/mL (≈ 2.67 µM)
- MIC Enterococcus faecalis (ATCC 29212) [3, 6]: 8 µg/mL (≈ 5.35 µM)
- MIC Enterococcus faecalis (GC 2242) [3, 6]: 8 µg/mL (≈ 5.35 µM)
- MIC Enterococcus faecalis (GC 2691) [3, 6]: 16 µg/mL (≈ 10.7 µM)
- MIC Enterococcus faecalis (GC 3059) [3, 6]: 16 µg/mL (≈ 10.7 µM)
- MIC Enterococcus faecalis (GC 4552) [3, 6]: 8 µg/mL (≈ 5.35 µM)
- MIC Enterococcus faecalis (GC 4553) [3, 6]: 4 µg/mL (≈ 2.67 µM)
- MIC Enterococcus faecalis (GC 4554) [3, 6]: 16 µg/mL (≈ 10.7 µM)
- MIC Enterococcus faecalis (GC 6189) [3, 6]: 16 µg/mL (≈ 10.7 µM)
- MIC Enterococcus faecium (GC 2243) [3, 6]: 4 µg/mL (≈ 2.67 µM)
- MIC Enterococcus faecium (GC 4556) [3, 6]: 8 µg/mL (≈ 5.35 µM)
- MIC Enterococcus faecium (GC 4557) [3, 6]: 1 µg/mL (≈ 0.669 µM)
- MIC Escherichia coli (GC 4560) ([4]; Escherichia coli (GC 4560), 18 hours at 35° C.): 4 µg/mL (≈ 2.67 µM)
